Experimental findings from patent US7964531B2, “3-phenoxy-4-pyridazinol derivatives and herbicidal composition containing the same” (Mitsui Chemicals Agro, Inc., priority 2001, dated 2011) are described below.

What all share (format): in vivo
Details in all cases: wettable powder applied 3 days after transplanting, judged after 25 days

Data set [1] relates to barnyardgrass (Echinochloa oryzicola Vasing.). In words: Test Example 1: herbicidal effects, paddy-field pot test. The essentials: (§1)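 Greenhouse, flooded paddy soil; weeds from seed (top 1 cm), C. serotinus from germinated tubers, rice transplanted at 2.2-leaf stage. WP diluted in water, applied to pot day 3 post-transplant. Scored day 25 post-treatment, 0–5 inhibition scale.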

In data set [2] the test system is Scirpus joncoides. Described as above. The procedure, abridged: as §1
Data set [3] concerns annual broad-leaved weeds (Lindernia spp., Rotala indica). The description is as above. The essentials:
as §1

Data set [4] deals with Cyperus serotinus. Described as above. The essentials: as §1
In data set [5] the test system is transplanted paddy-field rice. The data set can be described thus: Test Example 1: crop injury against transplanted paddy-field rice. The procedure, abridged: as §1

For the molecule `CC(C)(C)c1cccc(C2CC2)c1Oc1nnc(Cl)cc1O` [Example 274], the “Herbicidal effects Barnyard grass” value in data set [1] (chemical dosage 10 g/a) and in data set [1] (chemical dosage 20 g/a) was 3 (Growth inhibition rate; 51 to 70%) throughout. Moreover, the “Herbicidal effects Scirpus joncoides” value in data set [2] (chemical dosage 10 g/a) was 3 (Growth inhibition rate; 51 to 70%); in data set [2] (chemical dosage 20 g/a) it was 4 (Growth inhibition rate; 71 to 90%). Further, the “Herbicidal effects Broad leaf” value in data set [3] (chemical dosage 10 g/a) and in data set [3] (chemical dosage 20 g/a) was 5 (Growth inhibition rate; 91 to 100%) each time. For the same molecule, the “Herbicidal effects Cyperus serotinus” value in data set [4] (chemical dosage 10 g/a) and in data set [4] (chemical dosage 20 g/a) was 4 (Growth inhibition rate; 71 to 90%) in each case. The “Crop injury against transplanted rice” value in data set [5] (chemical dosage 10 g/a) and in data set [5] (chemical dosage 20 g/a) was 0 (Growth inhibition rate; 0 to 10%) each time.
Regarding `CCCS(=O)(=O)Oc1cc(Cl)nnc1Oc1ccccc1C1CC1` [Example 360], the “Herbicidal effects Barnyard grass” value in data set [1] (chemical dosage 10 g/a) is on record as 3 (Growth inhibition rate; 51 to 70%); in data set [1] (chemical dosage 20 g/a), 4 (Growth inhibition rate; 71 to 90%). Also, the “Herbicidal effects Scirpus joncoides” value in data set [2] (chemical dosage 10 g/a) and in data set [2] (chemical dosage 20 g/a) was 5 (Growth inhibition rate; 91 to 100%) each time. Besides, the “Herbicidal effects Broad leaf” value in data set [3] (chemical dosage 10 g/a) and in data set [3] (chemical dosage 20 g/a) was 5 (Growth inhibition rate; 91 to 100%) throughout. The “Herbicidal effects Cyperus serotinus” value in data set [4] (chemical dosage 10 g/a) and in data set [4] (chemical dosage 20 g/a) was 5 (Growth inhibition rate; 91 to 100%) throughout. For the same molecule, the “Crop injury against transplanted rice” value in data set [5] (chemical dosage 10 g/a) and in data set [5] (chemical dosage 20 g/a) was 0 (Growth inhibition rate; 0 to 10%) each time.
In the case of `CC(C)c1cccc(Br)c1Oc1nnc(Cl)cc1O` [Example 19], the “Herbicidal effects Barnyard grass” value is on record as 0 (Growth inhibition rate; 0 to 10%) in data set [1] (chemical dosage 12.5 g/a) and 1 (Growth inhibition rate; 11 to 30%) in data set [1] (chemical dosage 25 g/a). In addition, the “Herbicidal effects Scirpus joncoides” value in data set [2] (chemical dosage 12.5 g/a) and in data set [2] (chemical dosage 25 g/a) was 4 (Growth inhibition rate; 71 to 90%) throughout. Moreover, the “Herbicidal effects Broad leaf” value in data set [3] (chemical dosage 12.5 g/a) and in data set [3] (chemical dosage 25 g/a) was 5 (Growth inhibition rate; 91 to 100%) throughout. The “Herbicidal effects Cyperus serotinus” value in data set [4] (chemical dosage 12.5 g/a) and in data set [4] (chemical dosage 25 g/a) was 5 (Growth inhibition rate; 91 to 100%) each time. Moreover, the “Crop injury against transplanted rice” value in data set [5] (chemical dosage 12.5 g/a) and in data set [5] (chemical dosage 25 g/a) was 1 (Growth inhibition rate; 11 to 30%) in each case.
For `Cc1cc(C)c(C)c(Oc2nnc(Cl)cc2O)c1` [Example 286], the “Herbicidal effects Barnyard grass” value in data set [1] (chemical dosage 12.5 g/a) and in data set [1] (chemical dosage 25 g/a) was 0 (Growth inhibition rate; 0 to 10%) in each case. Besides, the “Herbicidal effects Scirpus joncoides” value in data set [2] (chemical dosage 12.5 g/a) and in data set [2] (chemical dosage 25 g/a) was 5 (Growth inhibition rate; 91 to 100%) each time. The “Herbicidal effects Broad leaf” value in data set [3] (chemical dosage 12.5 g/a) and in data set [3] (chemical dosage 25 g/a) was 5 (Growth inhibition rate; 91 to 100%) in each case. The “Herbicidal effects Cyperus serotinus” value in data set [4] (chemical dosage 12.5 g/a) and in data set [4] (chemical dosage 25 g/a) was 5 (Growth inhibition rate; 91 to 100%) each time. Also, the “Crop injury against transplanted rice” value in data set [5] (chemical dosage 12.5 g/a) and in data set [5] (chemical dosage 25 g/a) was 0 (Growth inhibition rate; 0 to 10%) each time.
Regarding `Cc1cc(C)c(C)c(Oc2nnc(Cl)cc2O)c1C` [Example 320], the “Herbicidal effects Barnyard grass” value is listed as 1 (Growth inhibition rate; 11 to 30%) in data set [1] (chemical dosage 12.5 g/a) and 2 (Growth inhibition rate; 31 to 50%) in data set [1] (chemical dosage 25 g/a). Also, the “Herbicidal effects Scirpus joncoides” value in data set [2] (chemical dosage 12.5 g/a) and in data set [2] (chemical dosage 25 g/a) was 5 (Growth inhibition rate; 91 to 100%) throughout. Also, the “Herbicidal effects Broad leaf” value in data set [3] (chemical dosage 12.5 g/a) and in data set [3] (chemical dosage 25 g/a) was 5 (Growth inhibition rate; 91 to 100%) throughout. The “Herbicidal effects Cyperus serotinus” value in data set [4] (chemical dosage 12.5 g/a) and in data set [4] (chemical dosage 25 g/a) was 5 (Growth inhibition rate; 91 to 100%) in each case. Also, the “Crop injury against transplanted rice” value in data set [5] (chemical dosage 12.5 g/a) and in data set [5] (chemical dosage 25 g/a) was 0 (Growth inhibition rate; 0 to 10%) throughout.
With `CCc1ccc2c(c1Oc1nnc(Cl)cc1O)CCC2` [Example 306], the “Herbicidal effects Barnyard grass” value in data set [1] (chemical dosage 10 g/a) was 1 (Growth inhibition rate; 11 to 30%). In addition, the “Herbicidal effects Scirpus joncoides” value in data set [2] (chemical dosage 10 g/a) is listed as 5 (Growth inhibition rate; 91 to 100%). The “Herbicidal effects Broad leaf” value in data set [3] (chemical dosage 10 g/a) is 5 (Growth inhibition rate; 91 to 100%). Also, the “Herbicidal effects Cyperus serotinus” value in data set [4] (chemical dosage 10 g/a) is 5 (Growth inhibition rate; 91 to 100%). The “Crop injury against transplanted rice” value in data set [5] (chemical dosage 10 g/a) is listed as 0 (Growth inhibition rate; 0 to 10%).
Consider `Cc1ccc(C(C)C)c(Oc2nnc(Cl)cc2O)c1` [Example 212], for which the figures for the “Herbicidal effects Barnyard grass” value in data set [1] (chemical dosage 12.5 g/a) and in data set [1] (chemical dosage 25 g/a) were 1 (Growth inhibition rate; 11 to 30%) and 2 (Growth inhibition rate; 31 to 50%), respectively. For the same molecule, the “Herbicidal effects Scirpus joncoides” value in data set [2] (chemical dosage 12.5 g/a) and in data set [2] (chemical dosage 25 g/a) was 5 (Growth inhibition rate; 91 to 100%) in each case. For the same molecule, the “Herbicidal effects Broad leaf” value in data set [3] (chemical dosage 12.5 g/a) and in data set [3] (chemical dosage 25 g/a) was 5 (Growth inhibition rate; 91 to 100%) in each case. The “Herbicidal effects Cyperus serotinus” value in data set [4] (chemical dosage 12.5 g/a) and in data set [4] (chemical dosage 25 g/a) was 5 (Growth inhibition rate; 91 to 100%) throughout. In addition, the “Crop injury against transplanted rice” value in data set [5] (chemical dosage 12.5 g/a) and in data set [5] (chemical dosage 25 g/a) was 0 (Growth inhibition rate; 0 to 10%) in each case.
With `Oc1cc(Cl)nnc1Oc1c(Cl)cccc1I` [Example 241], the “Herbicidal effects Barnyard grass” value in data set [1] (chemical dosage 10 g/a) is on record as 1 (Growth inhibition rate; 11 to 30%); in data set [1] (chemical dosage 20 g/a), 3 (Growth inhibition rate; 51 to 70%). Further, the “Herbicidal effects Scirpus joncoides” value in data set [2] (chemical dosage 10 g/a) was 3 (Growth inhibition rate; 51 to 70%); in data set [2] (chemical dosage 20 g/a), 4 (Growth inhibition rate; 71 to 90%). The “Herbicidal effects Broad leaf” value in data set [3] (chemical dosage 10 g/a) and in data set [3] (chemical dosage 20 g/a) was 5 (Growth inhibition rate; 91 to 100%) throughout. Moreover, the “Herbicidal effects Cyperus serotinus” value in data set [4] (chemical dosage 10 g/a) and in data set [4] (chemical dosage 20 g/a) was 5 (Growth inhibition rate; 91 to 100%) throughout. For the same molecule, the “Crop injury against transplanted rice” value in data set [5] (chemical dosage 10 g/a) and in data set [5] (chemical dosage 20 g/a) was 0 (Growth inhibition rate; 0 to 10%) throughout.
For `CS(=O)(=O)Oc1cc(Cl)nnc1Oc1ccccc1C1CC1` [Example 357], the “Herbicidal effects Barnyard grass” value is 2 (Growth inhibition rate; 31 to 50%) in data set [1] (chemical dosage 10 g/a) and 3 (Growth inhibition rate; 51 to 70%) in data set [1] (chemical dosage 20 g/a). Besides, the “Herbicidal effects Scirpus joncoides” value in data set [2] (chemical dosage 10 g/a) and in data set [2] (chemical dosage 20 g/a) was 5 (Growth inhibition rate; 91 to 100%) in each case. Further, the “Herbicidal effects Broad leaf” value in data set [3] (chemical dosage 10 g/a) and in data set [3] (chemical dosage 20 g/a) was 5 (Growth inhibition rate; 91 to 100%) each time. Also, the “Herbicidal effects Cyperus serotinus” value in data set [4] (chemical dosage 10 g/a) and in data set [4] (chemical dosage 20 g/a) was 5 (Growth inhibition rate; 91 to 100%) throughout. Further, the “Crop injury against transplanted rice” value in data set [5] (chemical dosage 10 g/a) and in data set [5] (chemical dosage 20 g/a) was 0 (Growth inhibition rate; 0 to 10%) each time.
Take `CC(=O)Oc1cc(Cl)nnc1Oc1ccccc1C1CC1` [Example 323]: the figures for the “Herbicidal effects Barnyard grass” value in data set [1] (chemical dosage 10 g/a) and in data set [1] (chemical dosage 20 g/a) were 3 (Growth inhibition rate; 51 to 70%) and 4 (Growth inhibition rate; 71 to 90%), respectively. Also, the “Herbicidal effects Scirpus joncoides” value in data set [2] (chemical dosage 10 g/a) and in data set [2] (chemical dosage 20 g/a) was 5 (Growth inhibition rate; 91 to 100%) each time. In addition, the “Herbicidal effects Broad leaf” value in data set [3] (chemical dosage 10 g/a) and in data set [3] (chemical dosage 20 g/a) was 5 (Growth inhibition rate; 91 to 100%) each time. Also, the “Herbicidal effects Cyperus serotinus” value in data set [4] (chemical dosage 10 g/a) and in data set [4] (chemical dosage 20 g/a) was 5 (Growth inhibition rate; 91 to 100%) each time. Also, the “Crop injury against transplanted rice” value in data set [5] (chemical dosage 10 g/a) and in data set [5] (chemical dosage 20 g/a) was 0 (Growth inhibition rate; 0 to 10%) throughout.
`Cc1cccc(Cl)c1Oc1nnc(Cl)cc1O` [Example 242]: the “Herbicidal effects Barnyard grass” value is reported as 3 (Growth inhibition rate; 51 to 70%) in data set [1] (chemical dosage 12.5 g/a) and 4 (Growth inhibition rate; 71 to 90%) in data set [1] (chemical dosage 25 g/a). Moreover, the “Herbicidal effects Scirpus joncoides” value in data set [2] (chemical dosage 12.5 g/a) was 3 (Growth inhibition rate; 51 to 70%); in data set [2] (chemical dosage 25 g/a), 4 (Growth inhibition rate; 71 to 90%). In addition, the “Herbicidal effects Broad leaf” value in data set [3] (chemical dosage 12.5 g/a) and in data set [3] (chemical dosage 25 g/a) was 5 (Growth inhibition rate; 91 to 100%) each time. Moreover, the “Herbicidal effects Cyperus serotinus” value in data set [4] (chemical dosage 12.5 g/a) and in data set [4] (chemical dosage 25 g/a) was 5 (Growth inhibition rate; 91 to 100%) each time. For the same molecule, the “Crop injury against transplanted rice” value in data set [5] (chemical dosage 12.5 g/a) and in data set [5] (chemical dosage 25 g/a) was 0 (Growth inhibition rate; 0 to 10%) each time.
